Experimental data taken from publication PMC12838644, “Dihydrotanshinone as a Natural Product-Based CYP17A1 Lyase Inhibitor for Hyperandrogenic Disorders” (Biomolecules, 2026).

Experiments:
CYP21A2 = test: Western blot of CYP21A2 protein expression in treated HEK-293T cells; assay type: cell-based, human; conditions: normalized to β-actin, 4 h treatment, DMSO control 1.07
Procedure: CYP21A2 expression was determined from total protein extracts. Cells were incubated with the previously described lysis buffer for 1 h and centrifuged at 10,000× g for 10 min at 4 °C [54]. The supernatant was collected, and total protein was determined using the Pierce Coomassie Plus (Bradford) assay kit (Thermo Fisher Scientific, Hanover Park, IL, USA). 50 μg of total protein was loaded onto an SDS-PAGE gel (GenScript, Piscataway, NJ, USA) and then transferred to a PVDF membrane as previously described. Two primary antibodies were used: a mouse DKY-Tag monoclonal antibody (GenScript, Catalog No. A00187) at a dilution of 1:1000 and a mouse anti-β-actin monoclonal antibody (Sigma Aldrich, St. Louis, MO, USA, Catalog No. SAB3500350) at a dilution of 1:1500. The secondary antibody, IRDye 800CW-conjugated donkey anti-mouse antibody (LI-COR, Lincoln, NE, USA, Catalog No. 926-32212), was used at a dilution of 1:15,000. Fluorescence signals were detected using an Odyssey SA infrared imaging system (LI-COR Bioscience Inc., Lincoln, NE, USA).

[1] = test system: NCI-H295R, HEK-293T and RWPE-1 cells; test: alamarBlue cytotoxicity assay, across all three cell lines; assay type: cell-based; conditions: Homo sapiens, read-out: half-maximal inhibitory concentrations (IC50), range across all three cell lines
Procedure: Human adrenocortical NCI-H295R cells (ATCC: CRL-2128) were purchased from ATCC and cultured in DMEM/Ham’s F-12 medium with L-glutamine and 15 mM HEPES (Thermo Fisher Scientific, Waltham, MA, USA), supplemented with 5% NU-Serum (Becton Dickinson, Franklin Lakes, NJ, USA), 0.1% insulin, transferrin, selenium (100 U/mL; Thermo Fisher Scientific, Waltham, MA, USA), and 1% penicillin (100 U/mL; Thermo Fisher Scientific, Waltham, MA, USA), and streptomycin (100 μg/mL; GIBCO, New York, NY, USA). RWPE-1 cells (ATCC: CRL-36O7) were cultured in keratinocyte serum-free media (K-SFM) supplemented with 0.05 mg/mL bovine pituitary extract and 5 ng/mL epidermal growth factor, and 1% penicillin (100 U/mL; Thermo Fisher Scientific, Waltham, MA, USA), and streptomycin (100 μg/mL; GIBCO). […] Additionally, key functional and morphological characteristics were assessed to verify their alignment with previously reported profiles.
The alamarBlue® assay (Thermo Fisher Scientific, Waltham, MA USA) was conducted as previously described. […] Cell viability was measured using the alamarBlue® assay. […] The plates were incubated in the dark at 37 °C with 5% CO2 for 4 h, and fluorescence was measured at an excitation wavelength of 540 nm and an emission wavelength of 590 nm. Cell viability was calculated relative to the control sample treated with DMSO. […]

Row | SMILES | CYP21A2 protein levels, normalized densitometry values (CYP21A2) | IC50 [1] [nM]
1 | Cc1cccc2c3c(ccc12)C1=C(C(=O)C3=O)[C@@H](C)CO1 [DT, dihydrotanshinone I] | 1.15 | 950 to 1400
2 | Cc1coc2c1C(=O)C(=O)c1c-2ccc2c1CCCC2(C)C [TAII, tanshinone IIA] | 1.30 | 
